Source: patent US9409905B2, “Antibacterial compounds and methods for use” (PTC THERAPEUTICS, INC., priority 2011, dated 2016)
Converted amounts (≈) assume the structure as drawn.

Legend:
[1] = system: Escherichia coli (E. coli) BAS849; assay: Antibacterial activity, microbroth dilution MIC (Table 1); format: cell-based; conditions: microbroth dilution, super sensitive Gram-negative E. coli BAS849, read-out: MIC, BAS849
Method in brief: (§1)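 MIC (μg/mL) is taken as the lowest concentration with no macroscopically visible growth. Strains tested by microbroth dilution: Gram-positive S. aureus 29213, control Gram-negative E. coli 25922, and super-sensitive E. coli BAS849.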

[2] = system: Staphylococcus aureus (S. aureus) 29213; assay: as above; format: cell-based; conditions: microbroth dilution, Gram-positive S. aureus 29213, read-out: MIC, 29213
Method in brief: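 Broth microdilution against S. aureus 29213, E. coli 25922 and hypersensitive E. coli BAS849. MIC in μg/mL is the lowest drug concentration preventing macroscopically visible growth under test conditions.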

E. coli 25922 = assay: as above; format: cell-based, Escherichia coli; conditions: Escherichia coli; microbroth dilution; control Gram-negative E. coli 25922 strain; read-out: MIC, 25922
Method in brief: as §1

E. coli LZ3111 = assay: Antibacterial activity, MIC, quinolone resistant strain (Table 2); format: cell-based; conditions: Escherichia coli, LZ3111, read-out: MIC LZ3111
Method in brief: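 Broth microdilution. Read-out: MIC in μg/mL, taken as lowest concentration with no macroscopically visible growth.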

E. coli ELZ4000 = assay: Antibacterial activity, MIC, multi-drug resistant clinical isolate (Table 3); format: cell-based; conditions: Escherichia coli, ELZ4000, read-out: MIC ELZ4000
Method in brief: (§2)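 MIC (μg/mL) read as lowest concentration with no macroscopically visible growth, determined by microbroth dilution.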

E. coli ELZ4251 = assay: as above; format: cell-based; conditions: Escherichia coli
Method in brief: as §2

[3] = system: Acinetobacter baumannii (A. baumannii) BAA747; assay: Antibacterial activity, MIC (Table 4); format: cell-based; conditions: A. baumannii BAA747, read-out: MIC, BAA747
Method in brief: (§3)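 Compounds are serially diluted in microbroth, bacteria are grown under the test conditions, and growth is then inspected macroscopically. The lowest concentration without visible growth is reported as the MIC (μg/mL).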

[4] = system: Klebsiella pneumoniae (K. pneumoniae) 35657; assay: Antibacterial activity, MIC (Table 4); format: cell-based; conditions: K. pneumoniae 35657, read-out: MIC, 35657
Method in brief: as §3

A. baumannii MXX2240 = assay: Antibacterial activity, MIC, resistant strain (Table 4); format: cell-based; conditions: Acinetobacter baumannii, MXX2240; resistant A. baumannii MMX2240, multi-drug resistant clinical isolate; read-out: MIC, MMX2240
Method in brief: as §3

K. pneumoniae MXX1232 = assay: as above; format: cell-based; conditions: Klebsiella pneumoniae, MXX1232; resistant K. pneumoniae MMX1232, multi-drug resistant clinical isolate; read-out: MIC, MMX1232
Method in brief: as §3

[5] = system: Pseudomonas aeruginosa (P. aeruginosa) 27853; assay: Antibacterial activity, MIC (Table 5); format: cell-based; conditions: P. aeruginosa 27853, read-out: MIC, 27853
Method in brief: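 Microbroth dilution; MIC (μg/mL) = lowest concentration with no macroscopically visible growth.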

[6] = system: Haemophilus influenzae (H. influenzae) 49247; assay: Antibacterial activity, MIC (Table 6); format: cell-based
Method in brief: (§4)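 Broth microdilution MIC, read as the lowest drug concentration preventing macroscopically visible growth under test conditions and reported in μg/mL.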

[7] = system: Moraxella catarrhalis (M. catarrhalis) 25238; assay: Antibacterial activity, MIC (Table 7); format: cell-based
Method in brief: as §4

[8] = system: Neisseria meningitidis (N. meningitidis) 13090; assay: Antibacterial activity, MIC (Table 8); format: cell-based
Method in brief: as §4

CCc1c(-c2ccc3c(c2)cc(CN2CCC(NC)C2)n3C)[nH]c(=O)c(C(=O)O)c1O (centres unmarked) [Cpd 181, 5-ethyl-4-hydroxy-6-(1-methyl-2-((3-(methylamino)pyrrolidin-1-yl)methyl)-1H-indol-5-yl)-2-oxo-1,2-dihydropyridine-3-carboxylic acid]
MIC [1]: < 1 µg/mL
MIC [2]: 12.5 to 150 µg/mL (≈ 29.4 to 353 µM)
MIC (E. coli 25922): 1 to 3.5 µg/mL (≈ 2.36 to 8.24 µM)
MIC (E. coli LZ3111): 1 to 3.5 µg/mL (≈ 2.36 to 8.24 µM)
MIC (E. coli ELZ4000): 12.5 to 150 µg/mL (≈ 29.4 to 353 µM)
MIC (E. coli ELZ4251): 12.5 to 150 µg/mL (≈ 29.4 to 353 µM)
MIC [3]: 3.5 to 12.5 µg/mL (≈ 8.24 to 29.4 µM)
MIC [4]: 1 to 3.5 µg/mL (≈ 2.36 to 8.24 µM)
MIC (A. baumannii MXX2240): 12.5 to 150 µg/mL (≈ 29.4 to 353 µM)
MIC (K. pneumoniae MXX1232): 12.5 to 150 µg/mL (≈ 29.4 to 353 µM)
MIC [5]: 12.5 to 150 µg/mL (≈ 29.4 to 353 µM)
MIC [6]: 1 to 3.5 µg/mL (≈ 2.36 to 8.24 µM)
MIC [7]: 1 to 3.5 µg/mL (≈ 2.36 to 8.24 µM)
MIC [8]: 1 to 3.5 µg/mL (≈ 2.36 to 8.24 µM)

CCc1c(-c2ccc3c(c2)cc(CN2C[C@H]4CC[C@@H](N)[C@H]4C2)n3C)[nH]c(=O)c(C(=O)O)c1O [Cpd 276, 6-(2-(((3aR,4R,6aS)-4-aminohexahydrocyclopenta[c]pyrrol-2(1H)-yl)methyl)-1-methyl-1H-indol-5-yl)-5-ethyl-4-hydroxy-2-oxo-1,2-dihydropyridine-3-carboxylic acid]
MIC [1]: < 1 µg/mL
MIC [2]: 3.5 to 12.5 µg/mL (≈ 7.77 to 27.7 µM)
MIC (E. coli 25922): 1 to 3.5 µg/mL (≈ 2.22 to 7.77 µM)
MIC (E. coli LZ3111): 3.5 to 12.5 µg/mL (≈ 7.77 to 27.7 µM)
MIC (E. coli ELZ4000): 12.5 to 150 µg/mL (≈ 27.7 to 333 µM)
MIC (E. coli ELZ4251): 12.5 to 150 µg/mL (≈ 27.7 to 333 µM)
MIC [3]: 12.5 to 150 µg/mL (≈ 27.7 to 333 µM)
MIC [4]: 1 to 3.5 µg/mL (≈ 2.22 to 7.77 µM)
MIC (A. baumannii MXX2240): 12.5 to 150 µg/mL (≈ 27.7 to 333 µM)
MIC (K. pneumoniae MXX1232): 12.5 to 150 µg/mL (≈ 27.7 to 333 µM)
MIC [5]: 12.5 to 150 µg/mL (≈ 27.7 to 333 µM)
MIC [6]: 1 to 3.5 µg/mL (≈ 2.22 to 7.77 µM)
MIC [7]: 1 to 3.5 µg/mL (≈ 2.22 to 7.77 µM)
MIC [8]: < 1 µg/mL

CCc1c(-c2ccc3c(c2)cc(CN2CC(N(C)C)C2)n3C)[nH]c(=O)c(C(=O)O)c1O [Cpd 189, 6-(2-((3-(dimethylamino)azetidin-1-yl)methyl)-1-methyl-1H-indol-5-yl)-5-ethyl-4-hydroxy-2-oxo-1,2-dihydropyridine-3-carboxylic acid]
MIC [1]: < 1 µg/mL
MIC [2]: 3.5 to 12.5 µg/mL (≈ 8.24 to 29.4 µM)
MIC (E. coli 25922): 1 to 3.5 µg/mL (≈ 2.36 to 8.24 µM)
MIC (E. coli LZ3111): 3.5 to 12.5 µg/mL (≈ 8.24 to 29.4 µM)
MIC (E. coli ELZ4000): 12.5 to 150 µg/mL (≈ 29.4 to 353 µM)
MIC (E. coli ELZ4251): 3.5 to 12.5 µg/mL (≈ 8.24 to 29.4 µM)
MIC [3]: 1 to 3.5 µg/mL (≈ 2.36 to 8.24 µM)
MIC [4]: 1 to 3.5 µg/mL (≈ 2.36 to 8.24 µM)
MIC (A. baumannii MXX2240): 12.5 to 150 µg/mL (≈ 29.4 to 353 µM)
MIC (K. pneumoniae MXX1232): 12.5 to 150 µg/mL (≈ 29.4 to 353 µM)
MIC [5]: 12.5 to 150 µg/mL (≈ 29.4 to 353 µM)
MIC [6]: < 1 µg/mL
MIC [7]: < 1 µg/mL
MIC [8]: < 1 µg/mL

CCc1c(-c2ccc3c(c2)cc(CNC2(C)CC2)n3C)[nH]c(=O)c(C(=O)O)c1O [Cpd 275, 5-ethyl-4-hydroxy-6-(1-methyl-2-((1-methylcyclopropylamino)methyl)-1H-indol-5-yl)-2-oxo-1,2-dihydropyridine-3-carboxylic acid]
MIC [1]: < 1 µg/mL
MIC [2]: 3.5 to 12.5 µg/mL (≈ 8.85 to 31.6 µM)
MIC (E. coli 25922): < 1 µg/mL
MIC (E. coli LZ3111): < 1 µg/mL
MIC (E. coli ELZ4000): 1 to 3.5 µg/mL (≈ 2.53 to 8.85 µM)
MIC (E. coli ELZ4251): 1 to 3.5 µg/mL (≈ 2.53 to 8.85 µM)
MIC [3]: < 1 µg/mL
MIC [4]: 1 to 3.5 µg/mL (≈ 2.53 to 8.85 µM)
MIC (A. baumannii MXX2240): < 1 µg/mL
MIC (K. pneumoniae MXX1232): 12.5 to 150 µg/mL (≈ 31.6 to 379 µM)
MIC [5]: 3.5 to 12.5 µg/mL (≈ 8.85 to 31.6 µM)
MIC [6]: < 1 µg/mL
MIC [7]: < 1 µg/mL
MIC [8]: < 1 µg/mL

CCc1c(-c2ccc3c(c2)cc(CNC(C)C)n3C)[nH]c(=O)c(C(=O)O)c1O [Cpd 199, 5-ethyl-4-hydroxy-6-(2-((isopropylamino)methyl)-1-methyl-1H-indol-5-yl)-2-oxo-1,2-dihydropyridine-3-carboxylic acid]
MIC [1]: < 1 µg/mL
MIC [2]: 3.5 to 12.5 µg/mL (≈ 9.13 to 32.6 µM)
MIC (E. coli 25922): < 1 µg/mL
MIC (E. coli LZ3111): 1 to 3.5 µg/mL (≈ 2.61 to 9.13 µM)
MIC (E. coli ELZ4000): 3.5 to 12.5 µg/mL (≈ 9.13 to 32.6 µM)
MIC (E. coli ELZ4251): 3.5 to 12.5 µg/mL (≈ 9.13 to 32.6 µM)
MIC [3]: < 1 µg/mL
MIC [4]: < 1 µg/mL
MIC (A. baumannii MXX2240): 1 to 3.5 µg/mL (≈ 2.61 to 9.13 µM)
MIC (K. pneumoniae MXX1232): 12.5 to 150 µg/mL (≈ 32.6 to 391 µM)
MIC [5]: 3.5 to 12.5 µg/mL (≈ 9.13 to 32.6 µM)
MIC [6]: < 1 µg/mL
MIC [7]: < 1 µg/mL
MIC [8]: < 1 µg/mL

CCc1c(-c2ccc3c(c2)cc(CNC(C)(C)C)n3C)[nH]c(=O)c(C(=O)O)c1O [Cpd 193, 6-(2-((tert-butylamino)methyl)-1-methyl-1H-indol-5-yl)-5-ethyl-4-hydroxy-2-oxo-1,2-dihydropyridine-3-carboxylic acid]
MIC [1]: < 1 µg/mL
MIC [2]: 3.5 to 12.5 µg/mL (≈ 8.81 to 31.4 µM)
MIC (E. coli 25922): < 1 µg/mL
MIC (E. coli LZ3111): 3.5 to 12.5 µg/mL (≈ 8.81 to 31.4 µM)
MIC (E. coli ELZ4000): 3.5 to 12.5 µg/mL (≈ 8.81 to 31.4 µM)
MIC (E. coli ELZ4251): 3.5 to 12.5 µg/mL (≈ 8.81 to 31.4 µM)
MIC [3]: < 1 µg/mL
MIC [4]: < 1 µg/mL
MIC (A. baumannii MXX2240): 1 to 3.5 µg/mL (≈ 2.52 to 8.81 µM)
MIC (K. pneumoniae MXX1232): 12.5 to 150 µg/mL (≈ 31.4 to 377 µM)
MIC [5]: 3.5 to 12.5 µg/mL (≈ 8.81 to 31.4 µM)
MIC [6]: < 1 µg/mL
MIC [7]: < 1 µg/mL
MIC [8]: < 1 µg/mL

CCc1c(-c2ccc3c(c2)cc(CN(CC)CC)n3C)[nH]c(=O)c(C(=O)O)c1O [Cpd 167, 6-(2-((diethylamino)methyl)-1-methyl-1H-indol-5-yl)-5-ethyl-4-hydroxy-2-oxo-1,2-dihydropyridine-3-carboxylic acid]
MIC [1]: < 1 µg/mL
MIC [2]: 12.5 to 150 µg/mL (≈ 31.4 to 377 µM)
MIC (E. coli 25922): < 1 µg/mL
MIC (E. coli LZ3111): 3.5 to 12.5 µg/mL (≈ 8.81 to 31.4 µM)
MIC (E. coli ELZ4000): 12.5 to 150 µg/mL (≈ 31.4 to 377 µM)
MIC (E. coli ELZ4251): 3.5 to 12.5 µg/mL (≈ 8.81 to 31.4 µM)
MIC [3]: 1 to 3.5 µg/mL (≈ 2.52 to 8.81 µM)
MIC [4]: 1 to 3.5 µg/mL (≈ 2.52 to 8.81 µM)
MIC (A. baumannii MXX2240): 3.5 to 12.5 µg/mL (≈ 8.81 to 31.4 µM)
MIC (K. pneumoniae MXX1232): 12.5 to 150 µg/mL (≈ 31.4 to 377 µM)
MIC [5]: 12.5 to 150 µg/mL (≈ 31.4 to 377 µM)
MIC [6]: < 1 µg/mL
MIC [7]: < 1 µg/mL
MIC [8]: < 1 µg/mL
